In patent US20190300892A1, “CONSTRUCTS AND METHODS FOR BIOSYNTHESIS OF GALANTHAMINE” (priority 2014, published 2019):
“Also recorded” adds a separate entry of the source. Read-outs that look alike come from different tables or passages of the source.

Columns and labels:
[1] = molecular target: T1, NpN4OMT1 (Narcissus aff. pseudonarcissus MK-2014, UniProt A0A077EWA5); format: biochemical; settings: for enzymatic activity upon addition of divalent cation: cation dependence test, 5 min assays, 4 μM norbelladine, 37° C.
T1 construct: made in house; host or cells: E. coli BL21(DE3) Codon Plus RIL
T1 sequence (A0A077EWA5 whole entry): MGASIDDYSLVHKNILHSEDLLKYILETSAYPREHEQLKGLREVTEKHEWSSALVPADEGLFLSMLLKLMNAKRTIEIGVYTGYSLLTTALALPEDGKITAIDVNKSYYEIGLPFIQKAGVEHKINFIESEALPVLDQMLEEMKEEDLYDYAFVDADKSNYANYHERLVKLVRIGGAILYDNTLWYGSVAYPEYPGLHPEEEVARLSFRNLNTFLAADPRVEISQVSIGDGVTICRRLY
Method: Enzyme assays for initial testing of NpN4OMT1 contained 10 μg of pure protein with 200 μM AdoMet, 100 μM norbelladine and 30 mM potassium phosphate buffer pH 8.0 in 100 μl. The assays were incubated for 2 hr at 30° C. The vector control was an E. coli extract purified with TALON in the same way as the methyltransferase protein. For the vector control assay, an equal volume of the pure vector control extract was substituted for the NpN40MT1 protein in the enzyme assay. These assays were quenched by adjusting the pH to 9.5 with two volumes of sodium bicarbonate and extracted with two volumes ethyl acetate two times. After drying, the extracts were re-suspended in the initial mobile phase of the HPLC program. The HPLC separation of the assays was performed using a phenomenex Luna C8(2) 5 m 250×4.6 mm column with solvent A (0.1% formic acid in H2O) and solvent B (acetonitrile). The program started with 10% solvent B and a flow rate of 0.8 ml/min, a linear gradient began at 2 min to 30% at 15 min, 90% at 15.1 min, 90% at 20 min, 10% at 21 min and 10% at 28 min. Injection volume was 20 μl using a Waters auto-sampler. Waters UV detector was set to 277 nm.
After optimization of the NpN4OMT assay, the buffer was changed to […] glycine at pH 8.8, with 5 mM of MgCl2 added and the temperature was increased to 37° C. in 100 μl total reaction volume. When performing kinetic assays, the E. coli enzyme Pfs was added to break down SAH and prevent product inhibition. Papaverine was used as an internal standard.
With the same solvent system as for screening enzyme assays, the HPLC program started with 20% B and a flow rate of 0.8 ml/min, a linear gradient began at 2 min to 25.4% B at 7 min, 90% at 7.2 min, 90% at 9 min, 20% at 9.1 min and 20% at 14 min. A 4000 QTRAP mass spectrometer coupled to the same LC column and time program as used in HPLC was used to collect all compound mass and fragmentation data.
For NpN4OMT norbelladine kinetics an MRM program in positive ion mode was used to monitor the following fragments 260.00 [M+H]^+/138.00 [M−C8H9O]^+• m/z, 260.00 [M+H]^+/121.00 [M−C7H8NO2]^+• m/z, 274.00 [M+H]^+/137.00 [M+H—C8H9O2]^+ m/z, 274.00 [M+H]^+/122.00 [M+H—C8H10NO2]^+ m/z. The fragments with 260.00 [M+H]^+ m/z and 274.00 [M+H]^+ m/z molecular ions were replaced when looking at N-methylnorbelladine for 274.00 [M+H]^+/152.10 [M−C8H9O]^+• m/z, 274.00 [M+H]^+/121.00 [M−C9H12NO2]^+• m/z, 288.00 [M+H]^+/150.10 [M−C8H9O2]^+• m/z and 288.20 [M+H]^+/137.00 [M−C9H12NO]^+• m/z. Papaverine internal standard was monitored with the following fragments 340.40[M+H]^+/324.20 [M−CH3]^+• m/z and 340.40 [M+H]^+/202.10 [M−C8H9O2]^+• m/z. When conducting dopamine kinetics, galanthamine was used as the internal standard and samples were not ethyl acetate extracted prior to LC/MS/MS analysis. To remove protein, two volumes of acetonitrile were added followed by 1 hr at −20° C. and 10 min centrifugation at 16,100×g, 4° C. The supernatant was dried under vacuum and re-suspended in the starting mobile phase before analysis. The HPLC time program was changed to start at 5% solvent B with solution going to waste until 3.9 min, at 5 min start linear gradient to 25% B at […], 90% B at 9.5 min, 90% B at 11 min, 5% B at 11.1 min and 5% B at 16 min. Ions monitored in the MRM were 168.00 [M+H]^+/151.00 [M+H-OH]^+ m/z and 168.00 [M+H]^+/119.00 [M−OH—OCH3]^+• m/z. AdoMet steady state kinetic parameters were determined with norbelladine as the saturated substrate. Product was quantitated using HPLC with the 28 min program used for screening enzyme assays. Product for assays on the additional NpN4OMT variants was detected with this same 28 min program on HPLC.
When conducting kinetic experiments the K, was at least five fold higher than the minimum concentration of substrate and fivefold lower than the maximum concentration of substrate tested.

[2] = molecular target: T2, CYP96T1 (Narcissus aff. pseudonarcissus MK-2014, UniProt A0A140IL90); format: biochemical; settings: for product formation as CYP96T1 substrate: LC-MS/MS
T2 construct: made in house; host or cells: Spodoptera frugiperda Sf9 cells (Baculogold baculovirus, pVL1392)
T2 sequence (A0A140IL90 1-513): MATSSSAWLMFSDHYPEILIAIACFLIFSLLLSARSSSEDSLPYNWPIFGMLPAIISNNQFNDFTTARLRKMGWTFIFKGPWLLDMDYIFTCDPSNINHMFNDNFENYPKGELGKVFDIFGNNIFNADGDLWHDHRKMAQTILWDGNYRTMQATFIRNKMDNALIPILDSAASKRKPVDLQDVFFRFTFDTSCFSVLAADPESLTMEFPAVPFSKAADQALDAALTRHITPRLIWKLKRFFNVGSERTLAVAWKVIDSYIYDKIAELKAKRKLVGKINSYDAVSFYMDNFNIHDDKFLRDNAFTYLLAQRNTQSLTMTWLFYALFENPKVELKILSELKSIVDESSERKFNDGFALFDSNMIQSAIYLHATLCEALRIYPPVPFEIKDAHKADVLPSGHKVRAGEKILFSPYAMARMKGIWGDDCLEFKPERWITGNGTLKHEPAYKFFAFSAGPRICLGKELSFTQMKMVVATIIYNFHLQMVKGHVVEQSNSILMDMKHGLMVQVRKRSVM
Method: Recombinant protein production of NpN4OMT and norbelladine synthase/reductase in 1 L of E. coli and purification with TALON resin followed standard methods. No proteases were added to the protein extract, and desalting was performed with PD-10 columns from GE Healthcare. Protein quantity was determined according to Bradford; purity was monitored by SDS-PAGE. The E. coli cell line containing the hexahistidine-tagged methylthioadenosine/S-adenosylhomocysteine nucleosidase (Pfs) construct from Choi-Rhee and Cronan's work was used to purify Pfs protein. CYP96T1 was co-expressed with cytochrome P450 reductase in Spodoptera frugiperda Sf9 cells using Baculogold baculoviurus (BD Biosciences). Whole cell lysates were used in CYP96T1 enzyme assays.
CYP96T1 assays contained 30 mM KPO4 pH 8.0, 1.25 mM NADPH, 10 μM substrate and 70 μl of virus infected Sf9 cell suspension in 200 μl total volume. The assays were incubated for 2-4 hr at 30° C. 4′-O-metylnorbelladine was used as an initial test compound. Substrate specificity tests were done on 4′-O-methyl-N-methylnorbelladine, norbelladine, N-methylnorbelladine, 3′-O-methylnorbelladine, 3′,4′-O-dimethylnorbelladine, haemanthamine, (S)-coclaurine, (R)-coclaurine and mixed (10aR,4bR)- and (10aS,4bS)-noroxomaritidine. Assays derivatized with sodium borohydride were incubated 2 hr at 30° C. followed by addition of 0.5 volumes 0.5 M sodium borohydride in 0.5 M sodium hydroxide and incubated 30 min at RT. The CYP96T1 assay resolved on a Chiral-CBH column and assays measured with HPLC used fresh CYP96T1 and CPR expressing SF9 cell protein prepared using re-amplified virus. Enzyme assays on all substrates were extracted as previously described and run on a QTRAP 4000 coupled to a IL-20AC XR prominence liquid auto sampler, 20AD XR prominence liquid chromatograph and Phenomenex Luna 5 μm C8(2) 250×4.60 mm column. HPLC gradient and MS settings were as previously described for NpN4OMT. Assay specific MS/MS parameters are presented in
Table 4. Multiple Reaction Monitoring (MRM) parameters for relative quantification of (10aR,4bR)- and (10aS,4bS)-noroxomaritidine, N-demethylnarwedine, narwedine and the two unknown compounds are presented in Table5. For analysis of product chirality, a Chrom Tech, Inc. Chiral-CBH 100×4.0 mm, 5 μM column was used with a 30 min isocratic flow of 2.5% HPLC grade ethanol and 10 mM ammonium acetate with pH adjusted to 7.0 with ammonium hydroxide.

NCCc1ccc(O)c(O)c1 [dopamine]
product formation / activity as NpN4OMT substrate [1]: served as a substrate, but with less efficiency | kcat ([1]; substrate of NpN4OMT1, ± = Standard error, ND = Not detected): 0.06 ± 0.0025 s⁻¹ | Km ([1]; substrate of NpN4OMT1, ± = Standard error, ND = Not detected, AdoMet determined with norbelladine as the saturated substrate): 7.3 ± 2.7 µM

CN(CCc1ccc(O)cc1)Cc1ccc(O)c(O)c1 [N-methylnorbelladine]
product formation as CYP96T1 substrate [2]: Product formation is not observed

COc1cc(C=O)ccc1O [vanillin]
product formation / activity as NpN4OMT substrate ([1]; text statement): Products were not detected

[Co+2] [cobalt]
enzymatic activity upon addition of divalent cation [1]: enzymatic activity improved

COc1cc2c(cc1O)[C@@H](Cc1ccc(O)cc1)NCC2 [(R)-Coclaurine]
product formation as CYP96T1 substrate [2]: yield products with a mass −2 m/z

COc1cc2c(cc1O)[C@H](Cc1ccc(O)cc1)NCC2 [(S)-Coclaurine]
product formation as CYP96T1 substrate [2]: yield products with a mass −2 m/z

O=Cc1ccc(O)c(O)c1 [3,4-dihydroxybenzaldehyde]
product formation / activity as NpN4OMT substrate ([1]; text statement): Products were not detected; also recorded: lack of enzymatic activity

Oc1ccc(CCNCc2ccc(O)c(O)c2)cc1 [norbelladine]
product formation as CYP96T1 substrate [2]: Product formation is not observed

COc1ccc(CNCCc2ccc(O)cc2)cc1O [4′-O-Methylnorbelladine]
product formation as CYP96T1 substrate [2]: C—C phenol coupled | kcat ([2]; substrate of CYP96T1): 0.25 ± 0.0338 s⁻¹ | kcat ([2]; substrate of CYP96T1, production of noroxomaritidine): 15.0 ± 2.03 L/min | Km ([2]; substrate of CYP96T1, production of (10aR,4bR)- and (10aS,4bS)-noroxomaritidine, Michaelis-Menten with substrate inhibition): 1.13 ± 0.5 µM

NCCc1ccc(O)cc1 [tyramine]
product formation / activity as NpN4OMT substrate ([1]; text statement): Products were not detected | product formation / activity as NpN4OMT substrate ([1]; text statement, listed as Tyramine): not methylated

O=C(O)/C=C/c1ccc(O)c(O)c1 [caffeic acid]
product formation / activity as NpN4OMT substrate [1]: Products were not detected

[Mg+2] [magnesium]
enzymatic activity upon addition of divalent cation [1]: increased fourfold more

COc1ccc(CNCCc2ccc(O)cc2)cc1OC [3′,4′-O-Dimethylnorbelladine]
product formation as CYP96T1 substrate [2]: products were not detected

COc1ccc(CN(C)CCc2ccc(O)cc2)cc1O [4′-O-Methyl-N-methylnorbelladine]
product formation as CYP96T1 substrate [2]: One product is enzymatically produced

COc1cc(CNCCc2ccc(O)cc2)ccc1O [3′-O-Methylnorbelladine]
product formation as CYP96T1 substrate [2]: products were not detected
